According to patent US8653071B2, “α4β2 neuronal nicotinic acetylcholine receptor ligands” (Suven Life Sciences Limited, priority 2009, dated 2014):

Experiments:
Male Sprague Dawley rats = test: Effect of test compounds on body weight gain in high fat fed rats; assay type: in vivo, rat; settings: oral for 14 days, high fat diet fed rats
Excerpt: Effect of Test Compounds on Body Weight Gain in High Fat Fed Rats
The body weight gain suppressing properties of compounds of this invention were studied using a animal model of obesity.
Male Sprague Dawley rats (150-160 grams) obtained from Reliance Life Sciences, India were used as experimental animals. Rats were fed with control diet (normal pellet diet) and lard based high fat diet (45% kcal diet) for 7-8 weeks. High fat diet fed animals was randomized according to their body weights. The animals were housed in a group of 3-4 per cage. One group of 10 rats received vehicle (2 mL/Kg) orally and another set of animals received compound of the formula (I) orally for 14 days. Body weight of the animals was recorded for first three consecutive days then it was recorded twice weekly. Weighed amount of food was given to the animals and food intake was recorded every 24 hour for the entire study period.

[1] = target: Nicotinic Acetylcholine α4β2 Receptor (UniProt P09483+P12390); test: Binding assay for human or rat nicotinic acetylcholine α4β2 receptor ([3H]Cytisine displacement); settings: [3H]Cytisine 2.5 nM; rat brain frontal cortex or recombinant human receptor in CHO cells (not specified which); read-out: Ki

CNCC1CC2CC2N1c1cccnc1.Cl (stereo not drawn) [Example 4, N-[2-(Pyridin-3-yl)-2-azabicyclo[3.1.0]hex-3-ylmethyl]methylamine hydrochloride]
Inference (Male Sprague Dawley rats): Active
% Reduction in body weight gain compared to vehicle (Day 14) (Male Sprague Dawley rats; Day 14): 3.3%
Ki [1]: 0.0594 µM
